Source: patent US11931415B2, “Ophthalmic compositions” (The University of Liverpool, priority 2016, dated 2024)
Values joined by “and” are separate entries in the source; they are usually repeats but may differ in a detail not shown here. Equal values may be shown once.

Columns and labels:
[1] = literature value; cited from earlier work
physchem = details: SiO1000, oil or lipid
[2] = atRA saturation concentration in SiO and blends using tritiated atRA (liquid scintillation)

Structure (SMILES): CC1=C(/C=C/C(C)=C/C=C/C(C)=C/C(=O)O)C(C)(C)CCC1 [atRA, (2E,4E,6E,8E)-3,7-Dimethyl-9-(2,6,6-trimethylcyclohexen-1-yl)nona-2,4,6,8-tetraenoic acid]
- Solubility reported for atRA in SiO1000 in the literature [1]: 20 μg/mL and 0.6×10^−4 M
- solubility (physchem): ~28 µg/mL and 95 µM
- Saturation amount of atRA in SiO1000 blended with 1% PDMS-atRA ([2]; 1% (v/v) PDMS-atRA in SiO1000, after 2 weeks at ambient temperature, in air): 2.17 × 10^−3 M and 651.0 μg/mL
- Saturation amount of atRA in SiO1000 blended with 5% PDMS-atRA ([2]; 5% (v/v) PDMS-atRA in SiO1000, after 2 weeks at ambient temperature, in air): 2.33 × 10^−3 M and 699.8 μg/mL
- Solubility measured with tritiated atRA relative to the previous values ([2]; in SiO1000, tritiated atRA versus previous values): over 20 times
- Saturation of atRA in SiO5000 ([2]; in SiO5000, tritiated atRA, n=1): 610 μg/mL and 2.03×10^−3 M
